Drawing on the Kinase Knowledgebase extract (Sharma et al. 2016), this text covers IC50 for 11 compounds.

pIC50: −log10 of the molar value.

Sequence of PIK3CA (P42336 whole entry, looked up): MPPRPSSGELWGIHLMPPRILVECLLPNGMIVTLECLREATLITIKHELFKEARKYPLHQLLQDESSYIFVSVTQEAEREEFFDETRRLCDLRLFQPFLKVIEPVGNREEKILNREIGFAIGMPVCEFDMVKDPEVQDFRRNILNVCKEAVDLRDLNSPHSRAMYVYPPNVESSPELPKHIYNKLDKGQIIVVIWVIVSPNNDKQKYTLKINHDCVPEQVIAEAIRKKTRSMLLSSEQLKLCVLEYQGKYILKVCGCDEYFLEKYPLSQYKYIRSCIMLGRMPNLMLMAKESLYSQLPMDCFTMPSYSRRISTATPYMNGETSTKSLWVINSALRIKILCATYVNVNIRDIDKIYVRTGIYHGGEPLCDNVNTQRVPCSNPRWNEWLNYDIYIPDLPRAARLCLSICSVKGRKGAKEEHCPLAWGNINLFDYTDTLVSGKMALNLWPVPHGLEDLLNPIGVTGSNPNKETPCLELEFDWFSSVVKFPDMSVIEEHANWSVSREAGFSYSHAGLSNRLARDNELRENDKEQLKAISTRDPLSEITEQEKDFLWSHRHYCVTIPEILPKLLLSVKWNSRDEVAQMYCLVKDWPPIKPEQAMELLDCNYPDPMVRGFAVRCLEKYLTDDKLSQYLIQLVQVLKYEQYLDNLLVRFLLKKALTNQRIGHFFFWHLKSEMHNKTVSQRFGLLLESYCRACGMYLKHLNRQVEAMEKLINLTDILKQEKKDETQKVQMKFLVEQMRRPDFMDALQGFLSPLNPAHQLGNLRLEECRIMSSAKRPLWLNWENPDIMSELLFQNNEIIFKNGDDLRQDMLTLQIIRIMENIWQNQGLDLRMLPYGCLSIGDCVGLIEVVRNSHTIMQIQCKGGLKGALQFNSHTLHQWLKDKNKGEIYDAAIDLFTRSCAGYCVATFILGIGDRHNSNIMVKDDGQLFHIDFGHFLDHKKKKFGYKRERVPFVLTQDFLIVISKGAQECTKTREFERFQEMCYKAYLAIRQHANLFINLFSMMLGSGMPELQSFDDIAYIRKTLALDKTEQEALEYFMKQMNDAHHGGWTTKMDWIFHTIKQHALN

The experiment addresses PIK3CA (UniProt P42336). The experiment in a line: PI3K Inhibition.
`CO[C@H]1C[C@@H](C)CC2=C(NCCOCCOc3ccc4c(=O)cc(N5CCOCC5)oc4c3)C(=O)C=C(NC(=O)C(C)=CC=C[C@@H](OC)[C@H](OC(N)=O)C(C)=C[C@H](C)[C@H]1O)C2=O` had a pIC50 of 4.07.

Compound `CO[C@H]1C[C@@H](C)CC2=C(NCCCC#Cc3cccc4c(=O)cc(N5CCOCC5)oc34)C(=O)C=C(NC(=O)C(C)=CC=C[C@@H](OC)[C@H](OC(N)=O)C(C)=C[C@H](C)[C@H]1O)C2=O` had a pIC50 of 4.87.

`CO[C@H]1C[C@@H](C)CC2=C(NCCCCCCCOc3ccc4c(=O)cc(N5CCOCC5)oc4c3C)C(=O)C=C(NC(=O)C(C)=CC=C[C@@H](OC)[C@H](OC(N)=O)C(C)=C[C@H](C)[C@H]1O)C2=O`: the pIC50 is 5.30.

In turn, `CO[C@H]1C[C@@H](C)CC2=C(NCCOCCOc3ccc4c(=O)cc(N5CCOCC5)oc4c3C)C(=O)C=C(NC(=O)C(C)=CC=C[C@@H](OC)[C@H](OC(N)=O)C(C)=C[C@H](C)[C@H]1O)C2=O` had a pIC50 of 4.15.

`CO[C@H]1C[C@@H](C)CC2=C(NCCCOc3ccc4c(=O)cc(N5CCOCC5)oc4c3)C(=O)C=C(NC(=O)C(C)=CC=C[C@@H](OC)[C@H](OC(N)=O)C(C)=C[C@H](C)[C@H]1O)C2=O`: the pIC50 is under 3.30.

Compound `CO[C@H]1C[C@@H](C)CC2=C(NCCCCOc3ccc4c(=O)cc(N5CCOCC5)oc4c3)C(=O)C=C(NC(=O)C(C)=CC=C[C@@H](OC)[C@H](OC(N)=O)C(C)=C[C@H](C)[C@H]1O)C2=O` had a pIC50 of 3.70.

`CO[C@H]1C[C@@H](C)CC2=C(NCCCCCOc3ccc4c(=O)cc(N5CCOCC5)oc4c3)C(=O)C=C(NC(=O)C(C)=CC=C[C@@H](OC)[C@H](OC(N)=O)C(C)=C[C@H](C)[C@H]1O)C2=O` had a pIC50 of 3.51.

For the compound `CO[C@H]1C[C@@H](C)CC2=C(NCCCCCCOc3ccc4c(=O)cc(N5CCOCC5)oc4c3)C(=O)C=C(NC(=O)C(C)=CC=C[C@@H](OC)[C@H](OC(N)=O)C(C)=C[C@H](C)[C@H]1O)C2=O`, the pIC50 is under 3.30.

On to `CO[C@H]1C[C@@H](C)CC2=C(NCC#Cc3cccc4c(=O)cc(N5CCOCC5)oc34)C(=O)C=C(NC(=O)C(C)=CC=C[C@@H](OC)[C@H](OC(N)=O)C(C)=C[C@H](C)[C@H]1O)C2=O`, for which the pIC50 is 5.52.

As for `CO[C@H]1C[C@@H](C)CC2=C(NCCCCCCCCOc3ccc4c(=O)cc(N5CCOCC5)oc4c3C)C(=O)C=C(NC(=O)C(C)=CC=C[C@@H](OC)[C@H](OC(N)=O)C(C)=C[C@H](C)[C@H]1O)C2=O`, the pIC50 was 4.55.

`C=CCNC1=C2C[C@@H](C)C[C@H](OC)[C@H](O)[C@@H](C)C=C(C)[C@H](OC(N)=O)[C@@H](OC)C=CC=C(C)C(=O)NC(=CC1=O)C2=O` showed a pIC50 of under 3.30.

A word on the pIC50: it is the negative decadic logarithm of the IC50, by convention in mol/L. Low values mean a large IC50, high ones a small IC50.
